Source: patent US12344610B2, “APOL1 inhibitors and methods of use” (Maze Therapeutics, Inc., priority 2022, dated 2025)
pEC50: −log10 of the molar value.

test system: human immortalized podocytes inducibly expressing APOL1 G2; assay: APOL1 G2 podocyte cell rescue assay (Example B4); assay type: cell-based; conditions: Homo sapiens, differentiated human podocytes, doxycycline-induced APOL1 G2, CellTiter-Glo; geometric mean of at least 2 runs; † = single run
Outline: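 Differentiated hTERT-immortalized podocytes (clone D10) with doxycycline-inducible C-terminally HiBiT-tagged APOL1 G2, 6,000 cells/well, treated with doxycycline plus 8-point 3-fold compound series (0.4% DMSO) for 95 h at 37 °C. Viability by CellTiter-Glo luminescence; EC50 as geometric mean of ≥2 runs, each in duplicate.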

First: CS(=O)(=O)C1(c2ncc(OCCN3CCC4(CC3)C(=O)Nc3ccc(C(F)F)cc34)cn2)CC1 [Compound 5, 5-(difluoromethyl)-1′-(2-{[2-(1-methanesulfonylcyclopropyl)pyrimidin-5-yl]oxy}ethyl)-1,2-dihydrospiro[indole-3,4′-piperidin]-2-one]
Second: CS(=O)(=O)C1(c2ncc(OCCN3CCC4(CC3)C(=O)Nc3ccc(OC(F)F)cc34)cn2)CC1 [Compound 6, 5-(difluoromethoxy)-1′-(2-{[2-(1-methanesulfonylcyclopropyl)pyrimidin-5-yl]oxy}ethyl)-1,2-dihydrospiro[indole-3,4′-piperidin]-2-one]
The pEC50 of the first is lower: < 6.48 for the first, 7.32 for the second. The second is the more potent here.

Compared with `O=C1CCc2cc(OCCN3CCC4(CC3)C(=O)Nc3ccc(Cl)cc34)cnc2N1[C@H]1C[C@H](O)C1` [Compound 267, 5-chloro-1′-[2-({7-oxo-8-[(trans)-3-hydroxycyclobutyl]-5,6,7,8-tetrahydro-1,8-naphthyridin-3-yl}oxy)ethyl]-1,2-dihydrospiro[indole-3,4′-piperidin]-2-one], `C[C@]1(O)C[C@@H](n2c(=O)cnc3cc(OCCN4CCC5(CC4)C(=O)Nc4ccc(Cl)cc45)cnc32)C1` [Compound 358, 5-chloro-1′-[2-({3-oxo-4-[(cis)-3-hydroxy-3-methylcyclobutyl]-3H,4H-pyrido[2,3-b]pyrazin-7-yl}oxy)ethyl]-1,2-dihydrospiro[indole-3,4′-piperidin]-2-one] is 0.56 log units lower in pEC50: 8.18 for the first, 7.62 for the second. The first is the more potent here.

`CC1(O)CN(c2ncc(OCCN3CCC4(CC3)C(=O)Nc3ccc(C(F)F)cc34)cn2)C1` [Compound 395, 5-(difluoromethyl)-1′-(2-{[2-(3-hydroxy-3-methylazetidin-1-yl)pyrimidin-5-yl]oxy}ethyl)-1,2-dihydrospiro[indole-3,4′-piperidin]-2-one] was tested, and the pEC50 was 6.86.

same assay, conditions: differentiated human podocytes, doxycycline-induced APOL1 G2, CellTiter-Glo; geometric mean of at least 2 runs; † = single run

Compared with `CC(c1ncc(OCCN2CCC3(CC2)C(=O)Nc2ccc(Cl)cc23)cn1)S(C)(=O)=O` (single isomer, unassigned) [Compound 2, 5-chloro-1′-[2-({2-[(1S) or (1R)-1-methanesulfonylethyl]pyrimidin-5-yl}oxy)ethyl]-1,2-dihydrospiro[indole-3,4′-piperidin]-2-one], `CS(=O)(=O)C1(c2ccc(OCCN3CCC4(CC3)C(=O)Nc3ccc(Cl)cc34)cc2)CC(O)C1` (stereo not drawn) [Compound 269, 5-chloro-1′-(2-{4-[(cis) or (trans)-3-hydroxy-1-methanesulfonylcyclobutyl]phenoxy}ethyl)-1,2-dihydrospiro[indole-3,4′-piperidin]-2-one] is 0.45 log units lower in pEC50: 7.97 for the first, 7.52 for the second.

Compared with `CC(c1ncc(OCCN2CCC3(CC2)C(=O)Nc2ccc(Cl)cc23)cn1)S(C)(=O)=O` (single isomer, unassigned) [Compound 3, 5-chloro-1′-[2-({2-[(1R) or (1S)-1-methanesulfonylethyl]pyrimidin-5-yl}oxy)ethyl]-1,2-dihydrospiro[indole-3,4′-piperidin]-2-one], `CS(=O)(=O)C1(c2ccc(OCCN3CCC4(CC3)C(=O)Nc3ccc(Cl)cc34)cc2)CC(O)C1` (stereo not drawn) [Compound 270, 5-chloro-1′-(2-{4-[(trans) or (cis)-3-hydroxy-1-methanesulfonylcyclobutyl]phenoxy}ethyl)-1,2-dihydrospiro[indole-3,4′-piperidin]-2-one] is 0.90 log units higher in pEC50: 7.63 for the first, 8.53 for the second. The second is the more potent here.

In the case of `CC(O)c1ncc(OCCN2CCC3(CC2)C(=O)Nc2ccc(C#N)cc23)cc1C(F)(F)F` (single isomer, unassigned) [Compound 376, 1′-[2-({6-[(1S) or (1R)-1-hydroxyethyl]-5-(trifluoromethyl)pyridin-3-yl}oxy)ethyl]-2-oxo-1,2-dihydrospiro[indole-3,4′-piperidine]-5-carbonitrile], the pEC50 was 8.21.
Work on `CC(O)c1ncc(OCCN2CCC3(CC2)C(=O)Nc2ccc(C#N)cc23)cc1C(F)(F)F` (single isomer, unassigned) [Compound 377, 1′-[2-({6-(1S) or (1R)-1-hydroxyethyl]-5-(trifluoromethyl)pyridin-3-yl}oxy)ethyl]-2-oxo-1,2-dihydrospiro[indole-3,4′-piperidine]-5-carbonitrile] yielded a pEC50 of 7.61.
